In one assay the target is T1, NaV1.8 (Homo sapiens, UniProt Q9Y5Y9).
T1 construct: expressed in transfected cells
T1 sequence (Q9Y5Y9 whole entry): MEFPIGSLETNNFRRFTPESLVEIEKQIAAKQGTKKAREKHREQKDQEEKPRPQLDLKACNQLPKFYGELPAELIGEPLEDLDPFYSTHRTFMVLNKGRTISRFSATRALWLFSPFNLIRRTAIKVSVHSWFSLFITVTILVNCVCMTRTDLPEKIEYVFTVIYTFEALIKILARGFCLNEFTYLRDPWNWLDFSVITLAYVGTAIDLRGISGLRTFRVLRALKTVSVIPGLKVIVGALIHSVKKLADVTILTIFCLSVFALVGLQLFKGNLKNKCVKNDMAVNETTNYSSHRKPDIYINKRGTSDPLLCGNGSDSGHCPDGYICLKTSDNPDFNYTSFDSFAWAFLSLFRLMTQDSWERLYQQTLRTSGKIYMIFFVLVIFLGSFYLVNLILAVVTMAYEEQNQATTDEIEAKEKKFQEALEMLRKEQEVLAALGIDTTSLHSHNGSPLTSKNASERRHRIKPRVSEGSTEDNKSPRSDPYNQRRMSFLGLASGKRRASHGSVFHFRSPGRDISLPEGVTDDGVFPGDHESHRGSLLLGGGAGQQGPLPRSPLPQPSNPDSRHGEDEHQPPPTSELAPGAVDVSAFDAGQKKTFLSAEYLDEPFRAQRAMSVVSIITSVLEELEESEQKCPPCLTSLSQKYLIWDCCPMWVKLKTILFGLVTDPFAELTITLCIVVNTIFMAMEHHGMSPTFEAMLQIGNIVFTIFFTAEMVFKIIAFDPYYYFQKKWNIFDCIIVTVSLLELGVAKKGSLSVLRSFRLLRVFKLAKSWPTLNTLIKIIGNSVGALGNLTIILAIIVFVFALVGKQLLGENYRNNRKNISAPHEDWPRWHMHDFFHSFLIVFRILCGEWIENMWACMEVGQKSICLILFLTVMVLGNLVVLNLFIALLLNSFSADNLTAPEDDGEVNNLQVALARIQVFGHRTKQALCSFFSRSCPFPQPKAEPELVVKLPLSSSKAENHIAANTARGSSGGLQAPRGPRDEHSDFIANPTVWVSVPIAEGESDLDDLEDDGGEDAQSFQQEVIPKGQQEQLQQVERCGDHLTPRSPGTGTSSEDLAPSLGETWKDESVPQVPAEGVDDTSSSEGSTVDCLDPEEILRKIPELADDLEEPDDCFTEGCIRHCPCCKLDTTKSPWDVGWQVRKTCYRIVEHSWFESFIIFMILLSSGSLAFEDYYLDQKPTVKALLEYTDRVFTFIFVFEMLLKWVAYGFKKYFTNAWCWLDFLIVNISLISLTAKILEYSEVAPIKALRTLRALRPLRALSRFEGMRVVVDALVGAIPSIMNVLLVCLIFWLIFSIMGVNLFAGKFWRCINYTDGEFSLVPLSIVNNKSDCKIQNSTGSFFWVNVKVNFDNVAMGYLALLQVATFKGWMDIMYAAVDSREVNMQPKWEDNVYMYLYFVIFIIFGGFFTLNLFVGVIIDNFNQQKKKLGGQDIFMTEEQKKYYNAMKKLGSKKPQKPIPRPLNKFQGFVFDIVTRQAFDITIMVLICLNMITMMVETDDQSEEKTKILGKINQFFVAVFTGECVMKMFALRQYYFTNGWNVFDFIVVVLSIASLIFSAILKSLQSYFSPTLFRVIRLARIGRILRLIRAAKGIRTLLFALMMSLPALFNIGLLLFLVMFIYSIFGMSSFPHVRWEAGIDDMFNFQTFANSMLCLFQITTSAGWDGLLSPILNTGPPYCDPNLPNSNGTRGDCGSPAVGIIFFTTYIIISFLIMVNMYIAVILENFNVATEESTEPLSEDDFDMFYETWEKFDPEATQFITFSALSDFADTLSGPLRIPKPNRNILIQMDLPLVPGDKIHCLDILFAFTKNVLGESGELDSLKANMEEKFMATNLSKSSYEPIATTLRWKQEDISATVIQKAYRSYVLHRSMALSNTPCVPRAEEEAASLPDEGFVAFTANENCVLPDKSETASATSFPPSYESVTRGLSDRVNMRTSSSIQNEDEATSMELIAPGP
The assay can be described thus: Whole-cell patch clamp blocking activity against NaV1.8 channel current. It counts as cell-based. The conditions noted are these: CHO cell line stably expressing Nav1.8 (SCN10A: NM_006514), patch clamp. As to the method:
1. Test method: patch clamp technique was used to detect the influence of compounds on voltage-gated sodium channel (NaV) 1.1-1.8 subtype current
1) The specific information of the CHO cell line stably expressing the Nav1.8 channel was as follows: SCN10A: NM_006514
2) Cells were cultured in HAM'S/F-12 medium containing 10% fetal bovine serum and 10 μg/mL Blasticidin, 200 μg/mL Hygromycin B and 100 μg/mL Zeocin, culture temperature was 37° C. and the concentration of CO2 was 5%.
5) Patch clamp detection, before the experiment, the cells were separated with 0.25%—trypsin EDTA, inoculated into a 24 well plate with a density of 8*10^3 cells per well (final volume: 500 μL), tetracycline was added thereto, and experimental test was performed on the next day.
1) Extracellular fluid: 140 mM NaCl, 3.5 mM KCl, 2 mM CaCl2, 10 mM HEPES, 1.25 mM NaH2PO4, 1 mM MgCl2, 10 mM Glucose, pH=7.4 (NaOH).
2) Intracellular fluid: 50 mM CsCl, 10 mM NaCl, 10 mM HEPES, 20 mM EGTA, 60 mM CsF, pH=7.2 (CsOH).
The voltage stimulation scheme of whole-cell patch clamp recording of Nav channel current was as follows: first the membrane potential of the cell was clamped at −130 mV, and then the voltage was stepped to −40 mV or −20 mV at 10 mv step intervals for 8 s. The clamping voltage was maintained at −120 mV, and data was collected repeatedly every 20 seconds. The peak amplitude of its inward current was measured to determine its half-inactivation voltage.
The cell clamping potential was set at −120 mV. The resting and half-inactivation inhibition of sodium current was measured using double pulse mode. The double pulse mode was completed by two 0 mV depolarization test pulses (TP1 and TP2) lasting 50 ms. The conditional voltage between the two depolarization pulses was set near the half-inactivation voltage (lasting 8 s). […] The data acquisition was repeated at an interval of 20 s and the current peak was measured at the two test pulses.
When the current of the Nav channel recorded by the whole cell was stable, the drug was administered, after each drug concentration was applied for 5 minutes (or the current was stable), the next concentration would be tested, and multiple concentrations would be tested for each test compound. The cover glass covered with cells was placed in the recording bath of an inverted microscope, the test compound and the external liquid without compound flowed through the recording chambers in turns from low concentration to high concentration by gravity perfusion, so as to act on the cells, in the recording, the liquid exchange was carried out by vacuum pump. The current detected in each cell in the compound-free external fluid served as its own control group. Multiple cells were detected independently and repeatedly. All electrophysiological experiments were performed at room temperature.
First, the current after the action of each drug concentration and the blank control current were normalized, and then the blocking rate corresponding to each drug concentration was calculated. The mean and standard error were calculated for each concentration, and all the above values were calculated by Microsoft Excel 2013. In addition, the half-inhibitory concentration of each compound was calculated by IGOR software with the following equation: retardation rate=1/[1+(IC50/c)^h].
The dose-dependent effect was nonlinearly fitted with the above equation, wherein, c refers to the drug concentration, IC50 was the half inhibitory concentration, and h refers to the Hill coefficient. The curve fitting and the calculation of IC50 were completed by IGOR software (software version: 6.0.1.0).
For orientation: In patch-clamp work, channel activity is measured electrically.
Take `COc1cc(F)ccc1Oc1cc(Cl)c(Cl)cc1C(=O)Nc1ccc[n+]([O-])c1` [Embodiment A5]: half-maximal inhibition (IC50) required 7.4 nM.
On the same count and under the same terms, the result for `O=C(Nc1ccc[n+](O)c1)c1c(Oc2ccc(OC(F)(F)F)cc2)ccc(OC(F)(F)F)c1F` [Embodiment A19] reads 10 nM; that for `O=C(Nc1ccc[n+]([O-])c1)c1c(Oc2ccc(OC(F)(F)F)cc2)cc(Cl)c(Cl)c1F` [Embodiment A22], 0.32 nM.
On the same count and under the same terms, with `O=C(Nc1cc[n+]([O-])nc1)c1c(Oc2ccc(OC(F)(F)F)cc2)ccc(C(F)(F)F)c1Cl` [Embodiment A27] the figure was 0.64 nM; with `O=C(Nc1ccn[n+]([O-])c1)c1c(Oc2ccc(OC(F)(F)F)cc2)ccc(C(F)(F)F)c1Cl` [Embodiment A28], 2.9 nM.
On the same count and under the same terms, with `O=C(Nc1cc[n+]([O-])nc1)c1c(Oc2ccc(OC(F)(F)F)cc2)ccc(Br)c1F` [Embodiment A33] the figure was 4.6 nM; with `O=C(Nc1cc[n+]([O-])nc1)c1cc(Cl)c(Cl)cc1Oc1ccc(OC(F)(F)F)cc1` [Embodiment A35], 3 nM.
For `O=C(Nc1cc[n+]([O-])nc1)c1cc(Cl)c(Cl)cc1Oc1ccc(OC(F)(F)F)c(F)c1` [Embodiment A37], the IC50 (as a rule, the midpoint of a concentration-inhibition curve) worked out at 3.2 nM.
On the same count and under the same terms, with `O=C(Nc1ccn[n+]([O-])c1)c1cc(Cl)c(Cl)cc1Oc1ccc(OC(F)(F)F)c(F)c1` [Embodiment A38] the figure was 7.3 nM; with `O=C(Nc1ccc[n+](O)c1)c1c(Oc2ccc(OC(F)(F)F)cc2)ccc(C(F)(F)F)c1F` [Embodiment A42], 3.6 nM; with `Cc1cc(OC(F)(F)F)ccc1Oc1ccc(C(F)(F)F)c(F)c1C(=O)Nc1ccc[n+](O)c1` [Embodiment A51], 2.7 nM.
Same read-out and setting: the result for `O=C(Nc1ccc[n+](O)c1)c1c(Oc2ccc(OC(F)(F)F)cc2)ccc(C(F)(F)F)c1Cl` [Embodiment A57] reads 1.8 nM.
Same read-out and setting: the result for `O=C(Nc1cc[n+]([O-])nc1)c1c(Oc2ccc(OC(F)(F)F)cc2)cnc(C(F)(F)F)c1F` [Embodiment A61] reads 10.2 nM; that for `O=C(Nc1ccc[n+]([O-])c1)c1c(Oc2ccc(OC(F)(F)F)cc2)ccc(I)c1F` [Embodiment A73], 3.2 nM.
`O=C(Nc1ccc[n+](O)c1)c1c(Oc2ccc(OC(F)(F)F)cc2)ccc(Br)c1F` [Embodiment A74] had an IC50 of 3.5 nM.
Still for that read-out and setting: the result for `O=C(Nc1cc[n+]([O-])nc1)c1c(F)cc(C(F)(F)F)cc1Oc1ccc(OC(F)(F)F)cc1` [Embodiment A80] reads 8.4 nM; that for `COc1cc(F)ccc1Oc1cc(C(F)(F)F)c(Cl)cc1C(=O)Nc1ccc[n+]([O-])c1` [Embodiment A85], 1.7 nM; that for `COc1cc(F)ccc1Oc1cc(C(F)(F)F)c(Cl)c(F)c1C(=O)Nc1ccc[n+]([O-])c1` [Embodiment A86], 0.08 nM.

Still in this assay, the particulars now being: against NaV1.8 at 100 nM, CHO cell line stably expressing Nav1.8, patch clamp.
For `Cc1cc(F)ccc1Oc1cc(S(F)(F)(F)(F)F)ccc1C(=O)Nc1ccc[n+]([O-])c1` [Embodiment A8], the “Blocking rate (%) @100 nM” value amounted to 81.85%.
As to `O=C(Nc1ccc[n+]([O-])c1)c1c(Oc2ccc(OC(F)F)cc2)ccc(C(F)(F)F)c1F` [Embodiment A16], the “Blocking rate (%) @100 nM” value is 85.08%.
Still for that read-out and setting: with `O=C(Nc1ccc[n+]([O-])c1)c1c(Oc2ccc(OC(F)(F)F)cc2)ccc(C(F)(F)C(F)(F)F)c1F` [Embodiment A18] the figure was 96.02%; with `O=C(Nc1ccc[n+](O)c1)c1c(F)cc(OC(F)(F)F)cc1Oc1ccc(OC(F)(F)F)cc1` [Embodiment A20], 87.14%; with `O=C(Nc1ccc[n+](O)c1)c1c(Oc2ccc(OC(F)(F)F)c(F)c2)cc(Cl)c(Cl)c1F` [Embodiment A21], 98.02%.
As to `O=C(Nc1cc[n+]([O-])nc1)c1c(Oc2ccc(OC(F)(F)F)cc2)ccc(I)c1F` [Embodiment A23], the “Blocking rate (%) @100 nM” value turned out to be 97.04%.
Same read-out and setting: with `O=C(Nc1ccn[n+]([O-])c1)c1c(Oc2ccc(OC(F)(F)F)cc2)ccc(I)c1F` [Embodiment A24] the figure was 91.28%.
Same read-out and setting: the result for `O=C(Nc1cc[n+]([O-])nc1)c1ccc(C(F)(F)F)cc1Oc1ccc(OC(F)(F)F)c(F)c1` [Embodiment A26] reads 79.32%; that for `O=C(Nc1ccc[n+]([O-])c1)c1c(Cl)cc(C(F)(F)F)cc1Oc1ccc(OC(F)(F)F)cc1` [Embodiment A29], 87.63%; that for `O=C(Nc1ccc[n+]([O-])c1)c1c(Oc2ccc(OCC(F)(F)F)cc2)ccc(Br)c1Cl` [Embodiment A31], 88.88%.
For `O=C(Nc1ccn[n+]([O-])c1)c1c(Oc2ccc(OC(F)(F)F)cc2)ccc(Br)c1F` [Embodiment A34], the “Blocking rate (%) @100 nM” value is reported as 90.16%.
Same read-out and setting: the result for `O=C(Nc1ccn[n+]([O-])c1)c1cc(Cl)c(Cl)cc1Oc1ccc(OC(F)(F)F)cc1` [Embodiment A36] reads 87.40%; that for `O=C(Nc1ccc[n+]([O-])c1)c1c(Oc2ccc(OC(F)(F)F)cc2)cc(Cl)c(C(F)(F)F)c1F` [Embodiment A40], 99.91%.
Same read-out and setting: the result for `O=C(Nc1cc[n+]([O-])c(Cl)c1)c1c(Oc2ccc(OC(F)(F)F)cc2)ccc(C(F)(F)F)c1F` [Embodiment A43] reads 76.10%.
Take `O=C(Nc1cc[n+]([O-])cc1)c1c(Oc2ccc(OC(F)(F)F)cc2)ccc(C(F)(F)F)c1F` [Embodiment A44]: the “Blocking rate (%) @100 nM” value came to 77.61%.
For the compound `O=C(Nc1ccn[n+]([O-])c1)c1c(Oc2ccc(OC(F)(F)F)cc2)ccc(C(F)(F)F)c1F` [Embodiment A45], the “Blocking rate (%) @100 nM” value is 78.46%.
Same read-out and setting: the result for `O=C(Nc1ccc[n+]([O-])c1)c1c(Oc2ccc(F)cc2Cl)ccc(C(F)(F)F)c1F` [Embodiment A50] reads 79.66%.
On the same count and under the same terms, the result for `O=C(Nc1ccc[n+]([O-])c1)c1c(Oc2ccc(OC(F)(F)F)cc2F)ccc(C(F)(F)F)c1F` [Embodiment A52] reads 80.75%; that for `O=C(Nc1ccc[n+](O)c1)c1c(Oc2ccc(OCC(F)(F)F)cc2)ccc(C(F)(F)F)c1F` [Embodiment A53], 85.77%.
On to `O=C(Nc1ccc[n+](O)c1)c1c(Oc2ccc(OC(F)(F)F)cc2Cl)ccc(C(F)(F)F)c1F` [Embodiment A54], for which the “Blocking rate (%) @100 nM” value is 94.99%.
For `O=C(Nc1ccc[n+]([O-])c1)c1c(Oc2ccc(OC(F)(F)F)cc2)cnc(C(F)(F)F)c1F` [Embodiment A59], the “Blocking rate (%) @100 nM” value worked out at 87.57%.
On the same count and under the same terms, with `O=C(Nc1ccc[n+](O)c1)c1c(Oc2ccc(OC(F)(F)F)c(F)c2)cnc(C(F)(F)F)c1F` [Embodiment A62] the figure was 89.79%; with `O=C(Nc1ccc[n+]([O-])c1)c1c(Oc2ccc(OC(F)(F)F)cc2)cnc(C(F)(F)F)c1Cl` [Embodiment A63], 93.13%.
With `O=C(Nc1cc[n+]([O-])nc1)c1c(Oc2ccc(OC(F)(F)F)cc2)cnc(C(F)(F)F)c1Cl` [Embodiment A65], the “Blocking rate (%) @100 nM” value turned out to be 93.18%.
The same measure, in the same setting: the result for `O=C(Nc1cc[n+]([O-])nc1)c1c(Oc2ccc(OC(F)F)cc2)ccc(C(F)(F)F)c1F` [Embodiment A72] reads 85.63%; that for `O=C(Nc1ccc[n+]([O-])c1)c1c(Oc2ccc(OC(F)(F)F)cc2)ccc(Cl)c1F` [Embodiment A75], 88.87%.
Same read-out and setting: the result for `COc1cc(Oc2ccc(OC(F)(F)F)cc2)c(C(=O)Nc2ccc[n+]([O-])c2)c(F)c1C(F)(F)F` [Embodiment A78] reads 96.55%; that for `O=C(Nc1cc[n+]([O-])nc1)c1c(Oc2ccc(OC(F)(F)F)c(F)c2)cnc(C(F)(F)F)c1F` [Embodiment A83], 84.98%.
For the compound `Cc1cc(Oc2ccc(OC(F)(F)F)cc2)c(C(=O)Nc2ccc[n+]([O-])c2)cc1C(F)(F)F` [Embodiment A90], the “Blocking rate (%) @100 nM” value is 89.50%.

Values taken from US20230303495A9, “PYRIDINE OXYNITRIDE, PREPARATION METHOD THEREFOR AND USE THEREOF” (Orion Corporation, priority 2019, published 2023).
